These results are taken from PubChem BioAssay (NCI).

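96-well plates; 48 h exposure; 5 concentrations. Endpoints by linear interpolation between flanking doses. Not reached: highest tested concentration assigned. Abbreviation: GI50, concentration required for 50% inhibition of growth. TGI marks complete inhibition of growth.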 A value given as a limit tells only on which side of the number the result lay.

Among the test systems are OVCAR-4 ovarian; ACHN renal; SF-539 CNS; DU-145 prostate; HCT-116 colon; SNB-75 CNS; NCI-H23 lung; SK-MEL-2 melanoma; HCC-2998 colon; T-47D breast.
What all share (assay): NCI anticancer screen, dose series, 48 h

With `O=S(=O)(NCCCNc1cc(-c2cn(-c3ccccc3)nc2-c2cccc(O)c2)ccn1)c1ccc(Cl)cc1`, the GI50 is 1.67 µM in the experiment on OVCAR-4 ovarian; 2.74 µM with ACHN renal; 1.77 µM in the experiment on SF-539 CNS; 2.33 µM with DU-145 prostate; 1.57 µM in the experiment on HCT-116 colon; 1.45 µM in the experiment on SNB-75 CNS. Also, the GI50 is 1.64 µM in the experiment with NCI-H23 lung, 1.91 µM in the experiment with SK-MEL-2 melanoma, 1.82 µM in the experiment on HCC-2998 colon and 1.48 µM in the experiment with T-47D breast. In addition, the TGI with OVCAR-4 ovarian was found to be 5.92 µM; in the experiment on ACHN renal, 13.6 µM; in the experiment on SF-539 CNS it was 3.79 µM; in the experiment with DU-145 prostate, 7.58 µM; in the experiment with HCT-116 colon it was 3.29 µM; in the experiment on SNB-75 CNS, 7.99 µM. The TGI in the experiment on NCI-H23 lung was 4.98 µM; in the experiment with SK-MEL-2 melanoma, 3.51 µM; in the experiment on HCC-2998 colon, 3.46 µM; in the experiment on T-47D breast, 5.21 µM.
Regarding `COc1ccc(/C=C/C(=O)c2ccc(Nc3ccnc4cc(Cl)ccc34)cc2)cc1`, the GI50 with OVCAR-4 ovarian is above 100 µM; with ACHN renal it was above 100 µM; in the experiment with SF-539 CNS, above 100 µM; in the experiment on DU-145 prostate it was above 100 µM; with HCT-116 colon, 0.412 µM; in the experiment with SNB-75 CNS, above 100 µM. Besides, the GI50 in the experiment on NCI-H23 lung, in the experiment with SK-MEL-2 melanoma, in the experiment on HCC-2998 colon and in the experiment with T-47D breast was above 100 µM each time. Besides, the TGI with OVCAR-4 ovarian, in the experiment with ACHN renal, in the experiment with SF-539 CNS, in the experiment on DU-145 prostate, in the experiment with HCT-116 colon and in the experiment with SNB-75 CNS was above 100 µM each time. For the same molecule, the TGI in the experiment with NCI-H23 lung, in the experiment with SK-MEL-2 melanoma, with HCC-2998 colon and with T-47D breast was above 100 µM throughout.
As to `CC1=CC2C(C(C)C)CC1C1C(=O)OC(=O)C21` (stereo not given), the TGI in the experiment with OVCAR-4 ovarian, in the experiment with ACHN renal, in the experiment on SF-539 CNS, in the experiment with DU-145 prostate, in the experiment on HCT-116 colon and with SNB-75 CNS was above 100 µM in each case. In addition, the TGI with NCI-H23 lung, in the experiment with SK-MEL-2 melanoma, with HCC-2998 colon and in the experiment with T-47D breast was above 100 µM each time.
For `C[C@@]1(N2C(=O)OC[C@@H]2c2ccccc2)C(=O)N([C@H](CC(=O)N2CCC(N3CCCCC3)CC2)C(=O)NCc2cccc(C(F)(F)F)c2)[C@@H]1/C=C/c1ccccc1`, the GI50 in the experiment with OVCAR-4 ovarian is 2.6 µM; in the experiment on ACHN renal, 2.03 µM; in the experiment on SF-539 CNS it was 1.77 µM; in the experiment with DU-145 prostate, 2.79 µM; with HCT-116 colon, 1.93 µM; in the experiment on SNB-75 CNS it was 1.28 µM. The GI50 is 4.12 µM in the experiment on NCI-H23 lung, 2.13 µM with SK-MEL-2 melanoma, 1.98 µM in the experiment on HCC-2998 colon and 1.77 µM in the experiment with T-47D breast. Moreover, the TGI in the experiment on OVCAR-4 ovarian was determined as 9.86 µM; in the experiment on ACHN renal it was 4.61 µM; with SF-539 CNS, 3.32 µM; in the experiment on DU-145 prostate it was 8.47 µM; in the experiment with HCT-116 colon it was 3.51 µM; with SNB-75 CNS it was 2.95 µM. The TGI with NCI-H23 lung came out at 16.7 µM; in the experiment with SK-MEL-2 melanoma, 4.22 µM; with HCC-2998 colon it was 3.79 µM; with T-47D breast, 3.53 µM.
